Source: US20250009660A1, “LIPID COMPOUND, LIPOSOME, EXOSOME, LIPID NANOPARTICLE, AND DRUG DELIVERY SYSTEM” (NAGASAKI UNIVERSITY, priority 2021, published 2025)
“Also recorded” adds a separate entry of the source.

Tests used:
C26 = assay: Evaluation of cell binding properties / cell uptake of modified liposome; format: cell-based, Mouse; settings: C26 cells; for cell uptake (cell binding properties): rhodamine-labeled liposome modified with the lipid compound (FIG. 13)
Description: (§1) The liposome was modified with a lipid compound by a post-modification method using NanoAssemblr (nano pharmaceutical production apparatus; manufactured by Precision NanoSystems Inc.).

NIH3T3 = assay: as above; format: cell-based, Mouse; settings: NIH3T3 cells; for cell uptake (cell binding properties): rhodamine-labeled liposome modified with the lipid compound (FIG. 13)
Description: as §1

[1] = liposome modified with the lipid, compared with KK-(EK)4 lipid-modified liposome (FIG. 15)

Substance | cell uptake (cell binding properties) (C26) | cell uptake (cell binding properties) (NIH3T3) | cell binding properties (C26; [1]) | cell binding properties (NIH3T3; [1])
K-(EK)4-dipalmitoyllysine [K1] | an increase in cell uptake was observed compared with the unmodified liposome | an increase in cell uptake was observed compared with the unmodified liposome |  | 
KK-(EK)4-dipalmitoyllysine [K2] | an increase in cell uptake was observed compared with the unmodified liposome; also recorded: In comparison with K1, the uptake of K2 increased in all of the cells | an increase in cell uptake was observed compared with the unmodified liposome; also recorded: In comparison with K1, the uptake of K2 increased in all of the cells |  | 
KKK-(EK)4-dipalmitoyllysine [K3] | an increase in cell uptake was observed compared with the unmodified liposome; also recorded: the uptake of K3 and K4 when compared with K2 was the same | an increase in cell uptake was observed compared with the unmodified liposome; also recorded: the uptake of K3 and K4 when compared with K2 was the same |  | 
KKKK-(EK)4-dipalmitoyllysine [K4] | an increase in cell uptake was observed compared with the unmodified liposome; also recorded: the uptake of K3 and K4 when compared with K2 was the same | an increase in cell uptake was observed compared with the unmodified liposome; also recorded: the uptake of K3 and K4 when compared with K2 was the same |  | 
RR-(EK)4-dipalmitoyllysine [RR-(EK)4 lipid] |  |  | the same cell binding properties were exhibited | the same cell binding properties were exhibited
